# Reference: ChEMBL document CHEMBL3217615, “Novel 3,5-bis(arylidiene)-4-piperidone based monocarbonyl analogs of curcumin: anticancer activity evaluation and mode of action study” (2014)
# Experiments:
# Assay type in all cases: functional
# [1] = Growth inhibition of human HOP92 cells assessed as cell growth at 10^-5 M after 48 hrs by sulforhodamine B assay; conditions: HOP-92, 48 h, read-out: Activity
# [2] = Growth inhibition of human BT549 cells assessed as cell growth at 10^-5 M after 48 hrs by sulforhodamine B assay; conditions: BT-549, 48 h, read-out: Activity
# [3] = system: 786-0; assay: Growth inhibition of human 786-0 cells assessed as cell growth at 10^-5 M after 48 hrs by sulforhodamine B assay; conditions: 786-0, 48 h, read-out: Activity
# [4] = Growth inhibition of human UO31 cells assessed as cell growth at 10^-5 M after 48 hrs by sulforhodamine B assay; conditions: UO-31, 48 h, read-out: Activity
# [5] = system: MDA-MB-231; assay: Growth inhibition of human MDA-MB-231 cells assessed as cell growth at 10^-5 M after 48 hrs by sulforhodamine B assay; conditions: MDA-MB-231, 48 h, read-out: Activity
# [6] = system: DU-145; assay: Growth inhibition of human DU145 cells assessed as cell growth at 10^-5 M after 48 hrs by sulforhodamine B assay; conditions: DU-145, 48 h, read-out: Activity
# [7] = system: MDA-MB-435; assay: Growth inhibition of human MDA-MB-435 cells assessed as cell growth at 10^-5 M after 48 hrs by sulforhodamine B assay; conditions: MDA-MB-435, 48 h, read-out: Activity
# [8] = system: RPMI-8226; assay: Growth inhibition of human RPMI8226 cells assessed as cell growth at 10^-5 M after 48 hrs by sulforhodamine B assay; conditions: RPMI-8226, 48 h, read-out: Activity
# [9] = system: SK-MEL-5; assay: Growth inhibition of human SK-MEL-5 cells assessed as cell growth at 10^-5 M after 48 hrs by sulforhodamine B assay; conditions: SK-MEL-5, 48 h, read-out: Activity
# [10] = Growth inhibition of human SF539 cells assessed as cell growth at 10^-5 M after 48 hrs by sulforhodamine B assay; conditions: SF-539, 48 h, read-out: Activity
# [11] = system: T47D; assay: Growth inhibition of human T47D cells assessed as cell growth at 10^-5 M after 48 hrs by sulforhodamine B assay; conditions: read-out: Activity
# [12] = system: TK-10; assay: Growth inhibition of human TK10 cells assessed as cell growth at 10^-5 M after 48 hrs by sulforhodamine B assay; conditions: TK-10, 48 h, read-out: Activity
# [13] = system: HCT-116; assay: Growth inhibition of human HCT116 cells assessed as cell growth at 10^-5 M after 48 hrs by sulforhodamine B assay; conditions: HCT-116, 48 h, read-out: Activity
# [14] = system: NCI-H226; assay: Growth inhibition of human NCI-H226 cells assessed as cell growth at 10^-5 M after 48 hrs by sulforhodamine B assay; conditions: NCI-H226, 48 h, read-out: Activity
# [15] = system: SK-OV-3; assay: Growth inhibition of human SKOV3 cells assessed as cell growth at 10^-5 M after 48 hrs by sulforhodamine B assay; conditions: SK-OV-3, 48 h, read-out: Activity
# [16] = Growth inhibition of human HCC2998 cells assessed as cell growth at 10^-5 M after 48 hrs by sulforhodamine B assay; conditions: HCC 2998, 48 h, read-out: Activity
# [17] = system: A549; assay: Growth inhibition of human A549/ATCC cells assessed as cell growth at 10^-5 M after 48 hrs by sulforhodamine B assay; conditions: A549, 48 h, read-out: Activity
# [18] = system: A498; assay: Growth inhibition of human A498 cells assessed as cell growth at 10^-5 M after 48 hrs by sulforhodamine B assay; conditions: A498, 48 h, read-out: Activity
# [19] = system: NCI-H322M; assay: Growth inhibition of human NCI-H322M cells assessed as cell growth at 10^-4 M after 48 hrs by sulforhodamine B assay; conditions: read-out: Activity
# [20] = system: SN12C; assay: Growth inhibition of human SN12C cells assessed as cell growth at 10^-7 M after 48 hrs by sulforhodamine B assay; conditions: read-out: Activity
# [21] = system: SN12C; assay: Growth inhibition of human SN12C cells after 48 hrs by sulforhodamine B assay; conditions: for CC50: read-out: LC50 (the source's name)
# [22] = system: NCI-H460; assay: Growth inhibition of human NCI-H460 cells after 48 hrs by sulforhodamine B assay; conditions: NCI-H460, 48 h; for CC50: read-out: LC50 (the source's name)
# [23] = system: PC-3; assay: Growth inhibition of human PC3 cells assessed as cell growth at 10^-4 M after 48 hrs by sulforhodamine B assay; conditions: PC-3, 48 h, read-out: Activity
# [24] = Growth inhibition of human UACC257 cells assessed as cell growth at 10^-7 M after 48 hrs by sulforhodamine B assay; conditions: UACC-257, 48 h, read-out: Activity
# [25] = Growth inhibition of human SF539 cells assessed as cell growth at 10^-7 M after 48 hrs by sulforhodamine B assay; conditions: SF-539, 48 h, read-out: Activity
# [26] = system: T47D; assay: Growth inhibition of human T47D cells assessed as cell growth at 10^-6 M after 48 hrs by sulforhodamine B assay; conditions: read-out: Activity
# [27] = Growth inhibition of human UACC62 cells assessed as cell growth at 10^-6 M after 48 hrs by sulforhodamine B assay; conditions: UACC-62, 48 h, read-out: Activity
# [28] = Growth inhibition of human SF295 cells after 48 hrs by sulforhodamine B assay; conditions: SF-295, 48 h; for CC50: read-out: LC50 (the source's name)
# [29] = Growth inhibition of human MOLT4 cells assessed as cell growth at 10^-8 M after 48 hrs by sulforhodamine B assay; conditions: MOLT-4, 48 h; for growth at 0.01 µM: read-out: Activity; for CC50: read-out: pLC50 (the source's name) (converted); for TGI: read-out: pTGI (converted)
# [30] = Growth inhibition of human SF539 cells after 48 hrs by sulforhodamine B assay; conditions: SF-539, 48 h; for CC50: read-out: LC50 (the source's name)
# [31] = system: NCI-H522; assay: Growth inhibition of human NCI-H522 cells assessed as cell growth at 10^-6 M after 48 hrs by sulforhodamine B assay; conditions: NCI-H522, 48 h, read-out: Activity
# [32] = system: U-251; assay: Growth inhibition of human U251 cells after 48 hrs by sulforhodamine B assay; conditions: U-251, 48 h; for CC50: read-out: LC50 (the source's name)
# [33] = system: HCT-116; assay: Growth inhibition of human HCT116 cells after 48 hrs by sulforhodamine B assay; conditions: HCT-116, 48 h; for CC50: read-out: LC50 (the source's name)
# [34] = system: HL-60(TB); assay: Growth inhibition of human HL-60(TB) cells after 48 hrs by sulforhodamine B assay; conditions: HL-60, 48 h; for CC50: read-out: LC50 (the source's name)
# [35] = Growth inhibition of human UACC257 cells assessed as cell growth at 10^-4 M after 48 hrs by sulforhodamine B assay; conditions: UACC-257, 48 h, read-out: Activity
# [36] = Growth inhibition of human UACC257 cells assessed as cell growth at 10^-5 M after 48 hrs by sulforhodamine B assay; conditions: UACC-257, 48 h, read-out: Activity
structure (smiles),measurement,setting,value
O=C1/C(=C/c2c(Cl)cccc2Cl)CN(S(=O)(=O)c2ccccc2)C/C1=C\c1c(Cl)cccc1Cl,growth at 10 µM,[1],54.5%
same,growth at 10 µM,[2],89.3%
same,growth at 10 µM,[3],93%
same,growth at 10 µM,[4],73.7%
same,growth at 10 µM,[5],71.2%
same,growth at 10 µM,[6],85.8%
same,growth at 10 µM,[7],72.7%
same,growth at 10 µM,[8],63.3%
same,growth at 10 µM,[9],85.3%
same,growth at 10 µM,[10],99.9%
same,growth at 10 µM,[11],88.8%
same,growth at 10 µM,[12],101%
same,growth at 10 µM,[13],61.7%
same,growth at 10 µM,[14],110%
same,growth at 10 µM,[15],91.9%
same,growth at 10 µM,[16],103%
same,growth at 10 µM,[17],67.3%
same,growth at 10 µM,[18],91.6%
Cc1ccc(S(=O)(=O)N2C/C(=C\c3c(Cl)cccc3Cl)C(=O)/C(=C/c3c(Cl)cccc3Cl)C2)cc1,growth at 10 µM,[1],73.5%
same,growth at 10 µM,[2],101%
same,growth at 10 µM,[3],93.3%
same,growth at 10 µM,[4],72.5%
same,growth at 10 µM,[5],64.3%
same,growth at 10 µM,[6],96.8%
same,growth at 10 µM,[7],93.5%
same,growth at 10 µM,[8],82.9%
same,growth at 10 µM,[9],85%
same,growth at 10 µM,[10],106%
same,growth at 10 µM,[11],94%
same,growth at 10 µM,[12],115%
same,growth at 10 µM,[13],74.2%
same,growth at 10 µM,[14],98.1%
same,growth at 10 µM,[15],93.7%
same,growth at 10 µM,[16],114%
same,growth at 10 µM,[17],77.1%
same,growth at 10 µM,[18],109%
O=C1/C(=C/c2ccc(Cl)cc2Cl)CN(S(=O)(=O)c2ccccc2)C/C1=C\c1ccc(Cl)cc1Cl,growth at 10 µM,[1],-25%
same,growth at 100 µM,[19],-11%
same,growth at 0.1 µM,[20],92%
same,growth at 10 µM,[2],-72.8%
same,GI50,[21],245 nM
same,TGI,[21],718 nM
same,CC50,[21],> 100000 nM
same,growth at 10 µM,[3],-91%
same,GI50,[22],208 nM
same,TGI,[22],447 nM
same,CC50,[22],959 nM
same,growth at 100 µM,[23],-26%
same,growth at 0.1 µM,[24],90%
same,growth at 0.1 µM,[25],97%
same,growth at 1 µM,[26],55%
same,growth at 10 µM,[4],-63%
same,growth at 1 µM,[27],45%
same,GI50,[28],345 nM
same,TGI,[28],6670 nM
same,CC50,[28],> 100000 nM
same,GI50,[29],589 nM
same,growth at 0.01 µM,[29],104%
same,CC50,[29],> 100000 nM
same,TGI,[29],9120 nM
same,growth at 10 µM,[5],-52%
same,growth at 10 µM,[6],4%
same,growth at 10 µM,[7],-48%
same,growth at 10 µM,[8],-29%
same,growth at 10 µM,[9],47%
same,growth at 10 µM,[10],-54.1%
same,GI50,[30],424 nM
same,TGI,[30],2070 nM
same,CC50,[30],> 100000 nM
same,growth at 1 µM,[31],47%
same,growth at 10 µM,[11],7%
same,GI50,[32],173 nM
same,TGI,[32],373 nM
same,CC50,[32],805 nM
same,GI50,[33],198 nM
same,TGI,[33],424 nM
same,CC50,[33],908 nM
same,growth at 10 µM,[13],-84%
same,GI50,[34],562 nM
same,TGI,[34],3970 nM
same,CC50,[34],> 100000 nM
same,growth at 10 µM,[14],-62%
same,growth at 100 µM,[35],42%
same,growth at 10 µM,[15],44%
same,growth at 10 µM,[16],-83%
same,growth at 10 µM,[17],-43%
same,growth at 10 µM,[36],27%
same,growth at 10 µM,[18],-27%
Cc1ccc(S(=O)(=O)N2C/C(=C\c3cc(F)cc(F)c3)C(=O)/C(=C/c3cc(F)cc(F)c3)C2)cc1,growth at 10 µM,[1],-51%
same,growth at 100 µM,[19],-44%
same,growth at 0.1 µM,[20],94%
same,growth at 10 µM,[2],-89%
same,GI50,[21],342 nM
same,TGI,[21],1310 nM
same,CC50,[21],4260 nM
same,growth at 10 µM,[3],-87%
same,GI50,[22],828 nM
same,TGI,[22],2870 nM
same,CC50,[22],9220 nM
same,growth at 100 µM,[23],-84%
same,growth at 0.1 µM,[24],87%
same,growth at 0.1 µM,[25],93%
same,growth at 1 µM,[26],74%
same,growth at 10 µM,[4],-92%
same,growth at 1 µM,[27],-38%
same,GI50,[28],466 nM
same,TGI,[28],2500 nM
same,CC50,[28],15700 nM
same,GI50,[29],302 nM
same,growth at 0.01 µM,[29],100%
same,CC50,[29],> 100000 nM
same,TGI,[29],2090 nM
same,growth at 10 µM,[5],-53%
same,growth at 10 µM,[6],-65%
same,growth at 10 µM,[7],-76.6%
same,growth at 10 µM,[8],-36%
same,growth at 10 µM,[9],-92%
same,growth at 10 µM,[10],-72%
same,GI50,[30],1210 nM
same,TGI,[30],2870 nM
same,CC50,[30],6810 nM
same,growth at 1 µM,[31],-2%
same,growth at 10 µM,[11],-20%
same,GI50,[32],188 nM
same,TGI,[32],530 nM
same,CC50,[32],2020 nM
same,GI50,[33],209 nM
same,TGI,[33],543 nM
same,CC50,[33],1940 nM
same,growth at 10 µM,[12],-58%
same,growth at 10 µM,[13],-94%
same,GI50,[34],289 nM
same,TGI,[34],1740 nM
same,CC50,[34],> 100000 nM
same,growth at 10 µM,[14],47%
same,growth at 100 µM,[35],-84%
same,growth at 10 µM,[15],-26%
same,growth at 10 µM,[16],-89%
same,growth at 10 µM,[17],7%
same,growth at 10 µM,[36],-57%
same,growth at 10 µM,[18],-59%
